Test results reported in patent US5641500A, “Use of purinergic receptor agonists as antineoplastic agents” (The United States of America as represented by the …, priority 1995, dated 1997).
Blank lines part the entries; values can stand above or below the compound they belong to.

What was measured:
[1] = system: DU145 prostate carcinoma purinergic receptor; assay: ATP/purine-stimulated Ca2+ response (quin2 fluorescence) in DU145; format: cell-based, human; details: for relative agonist potency/activity in inducing a Ca2+ transient: DU145, FIG. 6
Procedure: (§5) The human prostate carcinoma cell lines PC3, DU145 (American Type Culture Collection) and PC-3M (a gift of Dr. G. Weiss, Surgery Branch, NCI) were maintained in Ham's F12K (PC3), Eagle's Modified Essential Medium (DU145), or RPMI 1640 (PC3M), supplemented with 7% (PC3) or 10% (DU145 and PC3M) fetal bovine serum, 100 units/ml penicillin, 100 mg/ml streptomycin, and 300 mg/ml glutamine. The cells were grown in a mixture of 5% CO2, 95% air at 37° C., and propagated by typsinization and dilution into fresh medium. Cells were typically used for calcium determination two days after dilution into fresh medium.
(§6) [Ca^2+ ]i was determined by the quin2 technique of Tsien et al. (J. Cell Biol. 94:325-334, 1982) with some modifications. Briefly, cells from confluent cultures were harvested by treatment with trypsin-EDTA. Cells were washed with calcium medium (1 mM CaCl2, 1 mM KCl, 1 mM MgCl2, 140 mM NaCl, 20 mM HEPES, 5 mM dextrose, pH 7.4), and loaded with 20 mM quin2/AM (Molecular Probes, Eugene, Oreg.) in calcium medium at 37° C. for 30 minutes, then diluted 5-fold with the same medium and incubated at 37° C. for 60 minutes. After loading, cells were washed and resuspended in the calcium media at 1.5-2.0×10^6 cells/ml and kept on ice until use. Cell viability was determined by trypan blue exclusion and was usually >95%. For measurement of fluorescence, 2 ml of cell suspension was transferred to a cuvette maintained at 37° C. Fluorescence was measured in a Perkin-Elmer 650-10S fluorescence spectrophotometer, with an excitation wavelength of 336 nm, slit 5 nm, and an emission wavelength of 493 nm, slit 5 nm. [Ca^2+ ]i was estimated after calibration with Triton X-100 and EGTA, assuming a dissociation constant of the Ca^2+ -quin2 complex of 115 nM.

[2] = system: PC-3 prostate carcinoma purinergic receptor; assay: ATP/purine-stimulated Ca2+ response (quin2 fluorescence) in PC-3; format: cell-based, human; details: for relative agonist potency/activity in inducing a Ca2+ transient: PC-3, FIG. 7
Procedure: as §5, §6

[3] = system: purinergic receptor on PC-3M prostate carcinoma cells; assay: Purine-stimulated Ca2+ response (quin2 fluorescence) in PC-3M; format: cell-based, human; details: FIG. 8
Procedure: as §5, §6

phospholipase C = assay: ATP-stimulated inositol phosphate production (HPLC of 3H-inositol phosphates) in PC-3; format: cell-based, human
Procedure: Cells were incubated with ^3 H-inositol (6 μCi/ml) in inositol-free RPMI 1640 medium (NIH Media Unit) without serum for 2 to 3 days at 37° C. under an atmosphere of 5% CO2, 95% air. Cells were detached by trypsinization, washed twice in phosphate buffered saline pH 7.4, resuspended in PBS with 10 mM LiCl, and maintained for 15 minutes at 37° C. After that, cells were washed twice with PBS plus 10 mM LiCl and resuspended in calcium medium plus 10 mM LiCl. The cell suspension was aliquoted into Eppendorf tubes, pre-warmed at 37° C., and treated with reagents for different times as indicated. Reactions were terminated by adding 100% trichloroacetic acid (TCA) to a final concentration of 10%. After centrifugation, the supernatants were removed, extracted twice with water-saturated ether to remove TCA, and stored at 4° C. until quantitative analysis of inositol phosphates by high pressure liquid chromatography.
Samples prepared as described above were applied to a Whatman Partisil 5 SAX column. Inositol phosphates were separated using an ammonium phosphate gradient (0.01M to 1.4M. pH 3.8, 1 ml/min flow rate) as described previously (Biochem. J. 255: 403-410, 1988). Radioactivity was measured by use of a Raytest radiodetector with a 2 ml flow cell and a ratio of 4:1 (v:v) of Monoflow 4 high salt scintillant (National Diagnostics); eluate at an efficiency of 17%. Values (counts/min) for each inositol phosphate were expressed as a percentage of ^3 H-phosphoinositides in the sample, permitting comparison among experiments.

[4] = system: PC-3 prostate carcinoma cells; assay: Cell growth (hemacytometer viable cell counts) and 3H-thymidine incorporation in PC-3; format: cell-based, human; details: for inhibition of cell growth: PC-3, 5 days, versus untreated control cells, FIG. 12; for 3H-thymidine incorporation cpm / 3H-thymidine incorporation cpm/cell / cell # (× 10-4): PC-3, 7 days
Procedure: (§1) The human prostate carcinoma cell lines PC3, DU145 (American Type Culture Collection) and PC-3M (a gift of Dr. G. Weiss, Surgery Branch, NCI) were maintained in Ham's F12K (PC3), Eagle's Modified Essential Medium (DU145), or RPMI 1640 (PC3M), supplemented with 7% (PC3) or 10% (DU145 and PC3M) fetal bovine serum, 100 units/ml penicillin, […], and […]. The cells were grown in a mixture of 5% CO2, 95% air at 37° C., and propagated by typsinization and dilution into fresh medium. Cells were typically used for calcium determination two days after dilution into fresh medium.
(§2) Cell growth was studied by hemacytometer counts of viable cells after incubation of cells with purinergic agonists in vitro. Viability was determined by trypan blue exclusion. In addition, growth studies were performed by ^3 H-thymidine incorporation. […] The induction of DNA strand breaks in the setting of cell growth inhibition is characteristic of programmed cell death or apoptosis.
(§3) Since purinergic receptor agonists induce massive mobilization of internal Ca^2+ stores and prolong this response through the opening of plasma membrane Ca^2+ channels, the effect of purinergic receptor stimulation on the growth of androgen-independent cells was examined. The cell lines DU145, PC-3, and PC-3M were incubated in the presence of ATP or the nonhydrolysable ATP analog adenylylimidodiphosphate (AMP-PNP), and cell growth was determined by hemacytometer counts of viable cells, with viability determined by trypan blue exclusion.
(§4) To further document the purinergic agonist-induced growth inhibition, thymidine incorporation studies were performed in conjunction with hemacytometer cell counts, and the thymidine incorporation per cell of ATP and AMP-PNP treated PC-3 and PC-3M cells was determined. These studies, shown in Table 2, confirmed that purinergic agonists inhibit the growth of androgen-independent prostate carcinoma cells. […] It is of interest that normal prostate cells die in response to androgen withdrawal in a process called apoptosis, and this cell death resembles the cell death shown after treatment with purinergic agonists in two respects. Firstly, the death of normal prostate cells after androgen withdrawal is dependent on a rise in intracellular Ca^2+. Secondly, the death of normal prostate cells after androgen withdrawal is mediated by an increase in the number of DNA strand breaks. Thus, this technique should be therapeutically useful for circumventing the absence of androgen receptors on advanced prostate carcinoma cells. The results presented here represent the discovery of a surface receptor specifically expressed on advanced prostatic adenocarcinoma which, when activated, induces a mode of cell death that apparently utilizes that same intracellular pathway as the death that normal prostate cells undergo in response to the withdrawal of androgen.

[5] = system: PC-3M prostate carcinoma cells; assay: Cell growth (hemacytometer viable cell counts) and 3H-thymidine incorporation in PC-3M; format: cell-based, human; details: 5 days
Procedure: as §1, §2, §3, §4

DU145 cells = assay: Cell growth (hemacytometer viable cell counts) in DU145; format: cell-based, human; details: DU145, 5 days, 100 μM, versus untreated controls, FIG. 11
Procedure: as §1
Cell growth was studied by hemacytometer counts of viable cells after incubation of cells with purinergic agonists in vitro. Viability was determined by trypan blue exclusion. In addition, growth studies were performed by ^3 H-thymidine incorporation. […]
as §3

[6] = system: PC-3 prostate carcinoma cells; assay: Nude mouse tumorigenesis of PC-3 cells pretreated in vitro; format: in vivo, athymic mice; details: cells pretreated in vitro 100 uM 3 times over 7 days, 1.5×10^6 cells/mouse s.c., FIG. 13
Procedure: PC-3 prostate carcinoma cells were treated in vitro with the purinergic agonists ATP or AMP-PNP, 100 uM 3 times over 7 days, and their growth in athymic mice was compared to that in untreated control cells. Cells were injected subcutaneously at an inoculum of 1.5×10^6 cells/mouse in 0.2 ml phosphate buffered saline, and the presence of palpable tumors was determined on day 22.
The cells were treated in vitro for 7 days, and then an equal number of untreated control cells, ATP treated, or AMP-PNP treated cells were inoculated subcutaneously into nude (athymic) mice.

[7] = system: plasma membrane Ca^2+ channels; assay: Effect of organic Ca2+ channel blockers on the ATP-stimulated Ca2+ transient in PC-3; format: cell-based, human; details: PC-3, FIG. 9

- relative agonist potency/activity in inducing a Ca2+ transient [1]: ATP>ADP>AMP>adenosine
- relative agonist potency/activity in inducing a Ca2+ transient [2]: ATP>ADP>AMP>adenosine
SMILES: Nc1ncnc2c1ncn2[C@@H]1O[C@H](COP(=O)(O)O)[C@@H](O)[C@H]1O [AMP, adenosine monophosphate]
- relative agonist potency/activity in inducing a Ca2+ transient [3]: ATP>ADP>AMP>adenosine

SMILES: Nc1ncnc2c1ncn2[C@@H]1O[C@H](COP(=O)(O)OP(=O)(O)OP(=O)(O)O)[C@@H](O)[C@H]1O [ATP, adenosine triphosphate]
- mean percent stimulation of Ca2+ response ([1]; DU145, 100 μM ATP, 13 experiments): 510.7%
- relative agonist potency/activity in inducing a Ca2+ transient [1]: ATP>ADP>AMP>adenosine
- mean percent stimulation of Ca2+ response ([2]; PC-3, 100 μM ATP, 16 experiments): 443.3%
- Ca2+ mobilizing activity compared with other peptides and neurotransmitters ([2]; PC-3, FIG. 1): largest Ca^2+ response of the agonists tested
- relative agonist potency/activity in inducing a Ca2+ transient [2]: ATP>ADP>AMP>adenosine
- relative agonist potency/activity in inducing a Ca2+ transient [3]: ATP>ADP>AMP>adenosine
- I(1,4,5)P3 % of total IP (phospholipase C; PC-3, 8 sec): 0.64 % of total IP
- I(1,4,5)P3 cpm (phospholipase C; PC-3, 8 sec): 1103 cpm
- I(1,4,5)P3 % of total IP (phospholipase C; PC-3, 15 sec): 0.57 % of total IP
- I(1,4,5)P3 cpm (phospholipase C; PC-3, 15 sec): 971 cpm
- I(1,4,5)P3 % of total IP (phospholipase C; PC-3, 30 sec): 0.78 % of total IP
- I(1,4,5)P3 cpm (phospholipase C; PC-3, 30 sec): 1361 cpm
- inhibition of cell growth ([4]; 100 μM): inhibition of growth
- 3H-thymidine incorporation cpm ([4]; 100 μM): 2729 cpm
- 3H-thymidine incorporation cpm/cell ([4]; 100 μM): 0.04 cpm/cell
- cell # (× 10-4) ([4]; 100 μM): 7.5 × 10-4
- 3H-thymidine incorporation cpm ([5]; 100 μM): 3307 cpm
- 3H-thymidine incorporation cpm/cell ([5]; 100 μM): 0.11 cpm/cell
- cell # (× 10-4) ([5]; 100 μM): 3.0 × 10-4
- inhibition of cell growth (DU145 cells): inhibition of growth
- inhibition of tumorigenesis (palpable tumor) [6]: inhibition of PC-3 prostate carcinoma tumorigenesis

- relative agonist potency/activity in inducing a Ca2+ transient [1]: ATP>ADP>AMP>adenosine
- relative agonist potency/activity in inducing a Ca2+ transient [2]: ATP>ADP>AMP>adenosine
SMILES: Nc1ncnc2c1ncn2[C@@H]1O[C@H](COP(=O)(O)OP(=O)(O)O)[C@@H](O)[C@H]1O [ADP, adenosine diphosphate]
- relative agonist potency/activity in inducing a Ca2+ transient [3]: ATP>ADP>AMP>adenosine

SMILES: COc1ccc(CCN(C)CCCC(C#N)(c2ccc(OC)c(OC)c2)C(C)C)cc1OC (stereo not shown) [verapamil]
- inhibition of influx of extracellular Ca2+ caused by ATP stimulation [7]: inhibitable

SMILES: Nc1ncnc2c1ncn2[C@@H]1O[C@H](COP(=O)(O)OP(=O)(O)NP(=O)(O)O)[C@@H](O)[C@H]1O [AMP-PNP, 5'adenylylimidodiphosphate]
- inhibition of cell growth ([4]; 100 μM): inhibition of growth
- 3H-thymidine incorporation cpm ([4]; 100 μM): 307 cpm
- 3H-thymidine incorporation cpm/cell ([4]; 100 μM): 0.06 cpm/cell
- cell # (× 10-4) ([4]; 100 μM): 0.5 × 10-4
- 3H-thymidine incorporation cpm ([5]; 100 μM): 2790 cpm
- 3H-thymidine incorporation cpm/cell ([5]; 100 μM): 0.14 cpm/cell
- cell # (× 10-4) ([5]; 100 μM): 2.0 × 10-4
- inhibition of cell growth (DU145 cells): inhibition of growth
- inhibition of tumorigenesis (palpable tumor) [6]: inhibition of PC-3 prostate carcinoma tumorigenesis

SMILES: COC(=O)C1=C(C)NC(C)=C(C(=O)OCCN(C)Cc2ccccc2)C1c1cccc([N+](=O)[O-])c1 (stereo not shown) [nicardipine]
- inhibition of influx of extracellular Ca2+ caused by ATP stimulation [7]: inhibitable

SMILES: CCCC(=O)Nc1ncnc2c1ncn2[C@@H]1O[C@@H]2COP(=O)(O)O[C@H]2[C@H]1OC(=O)CCC [DbcAMP, reference compound]
- 3H-thymidine incorporation cpm ([4]; DbcAMP concentration not given): 182 cpm
- 3H-thymidine incorporation cpm/cell ([4]; DbcAMP concentration not given): 0.01 cpm/cell
- cell # (× 10-4) ([4]; DbcAMP concentration not given): 1.5 × 10-4

SMILES: Nc1ncnc2c1ncn2[C@@H]1O[C@H](CO)[C@@H](O)[C@H]1O [adenosine]
- relative agonist potency/activity in inducing a Ca2+ transient [1]: ATP>ADP>AMP>adenosine
- relative agonist potency/activity in inducing a Ca2+ transient [2]: ATP>ADP>AMP>adenosine
- relative agonist potency/activity in inducing a Ca2+ transient [3]: ATP>ADP>AMP>adenosine

SMILES: COC(=O)C1=C(C)NC(C)=C(C(=O)OC)C1c1ccccc1[N+](=O)[O-] [nifedipine]
- inhibition of influx of extracellular Ca2+ caused by ATP stimulation [7]: inhibitable

SMILES: COc1ccc([C@@H]2Sc3ccccc3N(CCN(C)C)C(=O)[C@@H]2OC(C)=O)cc1 [diltiazem]
- inhibition of influx of extracellular Ca2+ caused by ATP stimulation [7]: inhibitable

SMILES: C[C@H](CCC(=O)O)C[C@H](C)C[C@H](C)C(=O)/C=C(\O)[C@H](C)C[C@H](C)C/C=C/[C@@H](C)[C@@H](O)[C@@H](C)[C@@H](O)C[C@@H]1CC[C@@](C)([C@H]2CC[C@@](C)([C@@H](C)O)O2)O1 [Ionomycin, ionomycin, reference compound]
- 3H-thymidine incorporation cpm ([5]; 1 μM): 3920 cpm
- 3H-thymidine incorporation cpm/cell ([5]; 1 μM): 0.39 cpm/cell
- cell # (× 10-4) ([5]; 1 μM): 1.0 × 10-4
